# From US10214508B2, “Nitrogen-containing heterocyclic compound” (Takeda Pharmaceutical Company Limited, priority 2014, dated 2019)
# Structures can show the parent of a compound that is named as a salt.
# Target: T1, human M1 receptor (hCHRM1) (Homo sapiens, UniProt P11229)
# T1 construct: expressed in transfected cells
# T1 sequence (P11229 1-460): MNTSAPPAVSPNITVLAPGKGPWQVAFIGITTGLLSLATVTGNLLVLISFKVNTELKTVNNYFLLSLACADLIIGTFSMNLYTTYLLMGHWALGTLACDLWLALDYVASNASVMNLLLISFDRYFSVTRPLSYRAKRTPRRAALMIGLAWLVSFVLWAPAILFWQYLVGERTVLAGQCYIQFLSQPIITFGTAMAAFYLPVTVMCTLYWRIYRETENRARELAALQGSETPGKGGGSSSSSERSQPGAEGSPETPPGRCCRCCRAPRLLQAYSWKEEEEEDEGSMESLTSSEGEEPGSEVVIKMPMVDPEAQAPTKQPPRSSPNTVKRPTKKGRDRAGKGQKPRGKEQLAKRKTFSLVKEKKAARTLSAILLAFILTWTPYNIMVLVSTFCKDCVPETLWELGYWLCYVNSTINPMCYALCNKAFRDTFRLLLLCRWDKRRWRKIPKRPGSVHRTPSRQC
# Assay: Measurement of M1 receptor positive allosteric modulator (M1PAM) activity, calcium fluorescence (FLIPRtetra)
# Format: cell-based
# Settings: 10 μM test compound with acetylcholine at EC20 (final 0.6-0.8 nM); 100% = acetylcholine 1 μM, 0% = DMSO; CHO-K1 cells expressing hCHRM1
# Description: Measurement of M1 Receptor Positive Allosteric Modulator (M1PAM) Activity
# The activity of a test compound in the presence of acetylcholine at EC20 concentration (final concentration 0.6-0.8 nM), which affords an action corresponding to about 20% of the maximum activity, was measured as PAM activity. The method is as follows. CHO-K1 cells stably expressing a human M1 receptor (hCHRM1) were plated on a 384-well black clear bottom plate (BD Falcon) at 5,000 cells/well, and cultured in an incubator at 37° C., 5% CO2 for 1 day. The medium in the cell plate was removed, and assay buffer A containing calcium indicator (Recording medium (DOJINDO LABORATORIES), 0.1% BSA (Wako Pure Chemical Industries, Ltd.), 2.5 μg/mL Fluo-4 AM (DOJINDO LABORATORIES), 0.08% Pluronic F127 (DOJINDO LABORATORIES), 1.25 mM probenecid (DOJINDO LABORATORIES)) was added at 30 μL/well. The cells were left standing in the incubator at 37° C., 5% CO2 for 30 min, and further left standing at room temperature for 30 min. A test compound prepared by diluting with assay buffer B (HBSS (Invitrogen), 20 mM HEPES (Invitrogen), 0.1% BSA) containing 2.4-3.2 nM acetylcholine was added at 10 μL/well, and the fluorescence was measured by FLIPRtetra (Molecular Devices) for 1 min every for 1 second. With the definition that the amount of change in the fluorescence on addition of acetylcholine (final concentration 1 μM) is 100% and that on addition of DMSO instead of a test compound is 0%, the activity (%) of the test compound was calculated, and the inflection point in the concentration-dependent curve of the test compound was calculated as IP values.
row,activity (%) at 10 μM [%],SMILES
1,98,"Cc1cnc(C(=O)N[C@H]2CCCC[C@@H]2O)cc1Cc1ccc(-n2cccn2)cc1 (relative stereo) [Example 4, N-(trans-2-hydroxycyclohexyl)-5-methyl-4-(4-(1H-pyrazol-1-yl)benzyl)pyridine-2-carboxamide]"
2,89,"COc1cnc(C(=O)N[C@H]2CCCC[C@@H]2O)cc1Cc1ccc(-c2cnn(C)c2)nc1 (relative stereo) [Example 58, N-(trans-2-hydroxycyclohexyl)-5-methoxy-4-((6-(1-methyl-1H-pyrazol-4-yl)pyridin-3-yl)methyl)pyridine-2-carboxamide]"
3,100,"Cc1cnc(C(=O)N[C@H]2COCC[C@@H]2O)cc1Cc1ccc(-c2ccn(C)n2)cc1 [Example 2, 1,5-anhydro-2,4-dideoxy-2-(((5-methyl-4-(4-(1-methyl-1H-pyrazol-3-yl)benzyl)pyridin-2-yl)carbonyl)amino)-L-threo-pentitol]"
4,91,"Cc1cnc(C(=O)N[C@H]2CCC[C@@H]2O)cc1Cc1ccc(-n2cccn2)cc1 [Example 5, N-((1S,2S)-2-hydroxycyclopentyl)-5-methyl-4-(4-(1H-pyrazol-1-yl)benzyl)pyridine-2-carboxamide]"
5,108,"O=C(N[C@H]1CCCC[C@@H]1O)c1cc(Cc2ccc(-n3cccn3)cc2)c(Cl)cn1 [Example 6, 5-chloro-N-((1S,2S)-2-hydroxycyclohexyl)-4-(4-(1H-pyrazol-1-yl)benzyl)pyridine-2-carboxamide]"
6,104,"O=C(N[C@H]1CCC[C@@H]1O)c1cc(Cc2ccc(-n3cccn3)cc2)c(Cl)cn1 [Example 7, 5-chloro-N-((1S,2S)-2-hydroxycyclopentyl)-4-(4-(1H-pyrazol-1-yl)benzyl)pyridine-2-carboxamide]"
7,92,"O=C(N[C@H]1COCC[C@@H]1O)c1cc(Cc2ccc(-n3cccn3)cc2)c(Cl)cn1 [Example 8, 1,5-anhydro-2-(((5-chloro-4-(4-(1H-pyrazol-1-yl)benzyl)pyridin-2-yl)carbonyl)amino)-2,4-dideoxy-L-threo-pentitol Hydrochloride]"
8,91,"Cc1cnc(C(=O)N[C@H]2CCCC[C@@H]2O)cc1Cc1ccc(-c2ccn(C)n2)cc1 [Example 9, N-((1S,2S)-2-hydroxycyclohexyl)-5-methyl-4-(4-(1-methyl-1H-pyrazol-3-yl)benzyl)pyridine-2-carboxamide]"
9,89,"Cc1cnc(C(=O)N[C@H]2CCCC[C@@H]2O)cc1Cc1ccc(-c2ccn(C)n2)cc1F [Example 10, 4-(2-fluoro-4-(1-methyl-1H-pyrazol-3-yl)benzyl)-N-((1S,2S)-2-hydroxycyclohexyl)-5-methylpyridine-2-carboxamide]"
10,98,"Cc1cnc(C(=O)N[C@H]2CCC[C@@H]2O)cc1Cc1ccc(-c2ccn(C)n2)cc1F [Example 11, 4-(2-fluoro-4-(1-methyl-1H-pyrazol-3-yl)benzyl)-N-((1S,2S)-2-hydroxycyclopentyl)-5-methylpyridine-2-carboxamide]"
11,113,"Cc1cnc(C(=O)N[C@H]2CCCC[C@@H]2O)cc1Cc1ccc(-n2cccn2)cc1F [Example 12, 4-(2-fluoro-4-(1H-pyrazol-1-yl)benzyl)-N-((1S,2S)-2-hydroxycyclohexyl)-5-methylpyridine-2-carboxamide]"
12,92,"Cc1cnc(C(=O)N[C@H]2CCC[C@@H]2O)cc1Cc1ccc(-n2cccn2)cc1F [Example 13, 4-(2-fluoro-4-(1H-pyrazol-1-yl)benzyl)-N-((1S,2S)-2-hydroxycyclopentyl)-5-methylpyridine-2-carboxamide]"
13,100,"Cc1cnc(C(=O)N[C@H]2CCC[C@@H]2O)cc1Cc1ccc(-c2cn(C)nc2C)cc1 [Example 14, 4-(4-(1,3-dimethyl-1H-pyrazol-4-yl)benzyl)-N-((1S,2S)-2-hydroxycyclopentyl)-5-methylpyridine-2-carboxamide Dihydrochloride]"
14,107,"Cc1cnc(C(=O)N[C@H]2CCCC[C@@H]2O)cc1Cc1ccc(-c2cn(C)nc2C)cc1 [Example 15, 4-(4-(1,3-dimethyl-1H-pyrazol-4-yl)benzyl)-N-((1S,2S)-2-hydroxycyclohexyl)-5-methylpyridine-2-carboxamide]"
15,91,"Cc1cnc(C(=O)N[C@H]2COCC[C@@H]2O)cc1Cc1ccc(-c2ccn(C)n2)cc1F [Example 16, 1,5-anhydro-2,4-dideoxy-2-(((4-(2-fluoro-4-(1-methyl-1H-pyrazol-3-yl)benzyl)-5-methylpyridin-2-yl)carbonyl)amino)-L-threo-pentitol]"
16,98,"Cc1cnc(C(=O)N[C@H]2COCC[C@@H]2O)cc1Cc1ccc(-n2cccn2)cc1F [Example 17, 1,5-anhydro-2,4-dideoxy-2-(((4-(2-fluoro-4-(1H-pyrazol-1-yl)benzyl)-5-methylpyridin-2-yl)carbonyl)amino)-L-threo-pentitol]"
17,105,"COC1CCCCC1NC(=O)c1cc(Cc2ccc(-c3ccn(C)n3)cc2)c(C)cn1 (stereo not shown) [Example 18, N-(2-methoxycyclohexyl)-5-methyl-4-(4-(1-methyl-1H-pyrazol-3-yl)benzyl)pyridine-2-carboxamide]"
18,104,"COc1ccc(Cc2cc(C(=O)N[C@H]3CCCC[C@@H]3O)ncc2C)cc1 [Example 19, N-((1S,2S)-2-hydroxycyclohexyl)-4-(4-methoxybenzyl)-5-methylpyridine-2-carboxamide]"
19,75,"Cc1cnc(C(=O)NC2(CO)CCCC2)cc1Cc1ccc(-c2ccn(C)n2)cc1 [Example 20, N-(1-(hydroxymethyl)cyclopentyl)-5-methyl-4-(4-(1-methyl-1H-pyrazol-3-yl)benzyl)pyridine-2-carboxamide]"
20,89,"Cc1cnc(C(=O)NC2CCOCC2O)cc1Cc1ccc(-c2ccn(C)n2)cc1 (stereo not shown) [Example 21, 1,5-anhydro-2,3-dideoxy-3-(((5-methyl-4-(4-(1-methyl-1H-pyrazol-3-yl)benzyl)pyridin-2-yl)carbonyl)amino)pentitol]"
21,77,"Cc1cnc(C(=O)NC2CC2(F)F)cc1Cc1ccc(-c2ccn(C)n2)cc1 (stereo not shown) [Example 22, N-(2,2-difluorocyclopropyl)-5-methyl-4-(4-(1-methyl-1H-pyrazol-3-yl)benzyl)pyridine-2-carboxamide]"
22,84,"Cc1cnc(C(=O)NC2(CO)CC2)cc1Cc1ccc(-c2ccn(C)n2)cc1 [Example 23, N-(1-(hydroxymethyl)cyclopropyl)-5-methyl-4-(4-(1-methyl-1H-pyrazol-3-yl)benzyl)pyridine-2-carboxamide]"
23,87,"Cc1cnc(C(=O)N[C@H]2c3ccccc3C[C@H]2O)cc1Cc1ccc(-c2ccn(C)n2)cc1 [Example 24, N-((1S,2R)-2-hydroxy-2,3-dihydro-1H-inden-1-yl)-5-methyl-4-(4-(1-methyl-1H-pyrazol-3-yl)benzyl)pyridine-2-carboxamide]"
24,85,"Cc1cnc(C(=O)NC2CC(F)(F)CCC2O)cc1Cc1ccc(-c2ccn(C)n2)cc1 (stereo not shown) [Example 25, N-(5,5-difluoro-2-hydroxycyclohexyl)-5-methyl-4-(4-(1-methyl-1H-pyrazol-3-yl)benzyl)pyridine-2-carboxamide]"
25,59,"Cc1cnc(C(=O)NC2COC2)cc1Cc1ccc(-c2ccn(C)n2)cc1 [Example 26, 5-methyl-4-(4-(1-methyl-1H-pyrazol-3-yl)benzyl)-N-(oxetan-3-yl)pyridine-2-carboxamide]"
26,88,"Cc1cnc(C(=O)NC2CCOCC2)cc1Cc1ccc(-c2ccn(C)n2)cc1 [Example 27, 5-methyl-4-(4-(1-methyl-1H-pyrazol-3-yl)benzyl)-N-(tetrahydro-2H-pyran-4-yl)pyridine-2-carboxamide]"
27,73,"Cc1cnc(C(=O)NC2CC2)cc1Cc1ccc(-c2ccn(C)n2)cc1 [Example 28, N-cyclopropyl-5-methyl-4-(4-(1-methyl-1H-pyrazol-3-yl)benzyl)pyridine-2-carboxamide]"
28,93,"Cc1cnc(C(=O)NC2CCC2)cc1Cc1ccc(-c2ccn(C)n2)cc1 [Example 29, N-cyclobutyl-5-methyl-4-(4-(1-methyl-1H-pyrazol-3-yl)benzyl)pyridine-2-carboxamide]"
